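Where inhibition never reached the appropriate level, the endpoint shown equals the highest concentration tested. Otherwise, values were interpolated linearly from a five-concentration, 48-hour dose response in 96-well plates. TGI denotes the concentration required for complete inhibition of growth.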
Legend:
Experiment in all cases: inhibition of tumour cell growth, NCI panel, 48 h
SK-MEL-2 melanoma = tested on: SK-MEL-2 melanoma
BT-549 breast = tested on: BT-549 breast
LOX IMVI melanoma = tested on: LOX IMVI melanoma
786-0 renal = tested on: 786-0 renal
RPMI-8226 leukemia = tested on: RPMI-8226 leukemia
MOLT-4 leukemia = tested on: MOLT-4 leukemia
PC-3 prostate = tested on: PC-3 prostate
HT29 colon = tested on: HT29 colon
MDA-N = tested on: MDA-N
HOP-62 NSCLC = tested on: HOP-62 NSCLC
HCT-116 colon = tested on: HCT-116 colon
A549 NSCLC = tested on: A549 NSCLC
KM12 colon = tested on: KM12 colon
CCRF-CEM leukemia = tested on: CCRF-CEM leukemia
OVCAR-3 ovarian = tested on: OVCAR-3 ovarian
MCF7 breast = tested on: MCF7 breast
HCC-2998 colon = tested on: HCC-2998 colon

| Structure (SMILES) | TGI (SK-MEL-2 melanoma) | TGI (BT-549 breast) | TGI (LOX IMVI melanoma) | TGI (786-0 renal) | TGI (RPMI-8226 leukemia) | TGI (MOLT-4 leukemia) | TGI (PC-3 prostate) | TGI (HT29 colon) | TGI (MDA-N) | TGI (HOP-62 NSCLC) | TGI (HCT-116 colon) | TGI (A549 NSCLC) | TGI (KM12 colon) | TGI (CCRF-CEM leukemia) | TGI (OVCAR-3 ovarian) | TGI (MCF7 breast) | TGI (HCC-2998 colon) |
| --- | --- | --- | --- | --- | --- | --- | --- | --- | --- | --- | --- | --- | --- | --- | --- | --- | --- |
| O=C1c2cscc2C(=O)C1(O)O | > 100 µM | 90.9 µM | > 100 µM | > 100 µM | > 100 µM | 57.8 µM | > 100 µM | > 100 µM | > 100 µM | > 100 µM | 46.3 µM | > 100 µM | > 100 µM | 52.9 µM | 67.5 µM | > 100 µM |  |
| CN1CCCC1=NC#N | > 100 µM |  | > 100 µM | > 100 µM | > 100 µM | > 100 µM | > 100 µM | > 100 µM | > 100 µM | > 100 µM | > 100 µM | > 100 µM | > 100 µM | > 100 µM | > 100 µM | > 100 µM | > 100 µM |
| CO[C@@H]1C=C[C@@]23c4cc5c(cc4C(O)N(CC2O)C3C1)OCO5 (stereo partly drawn) | 9.09 µM | 20.5 µM | 48.5 µM | 22.6 µM | > 100 µM | > 100 µM | 17.5 µM | 26.2 µM | 26.1 µM | > 100 µM | 21.3 µM | 39.5 µM | 17 µM | 5.38 µM | 58.8 µM | 8.64 µM |  |
| O=C(Nc1nnc(-c2c(Cl)c(Cl)c(Cl)c(Cl)c2-c2nc3cc(C(=O)c4ccccc4)ccc3[nH]2)o1)c1ccccc1 | 51.4 µM | 73.4 µM | 32 µM | 30.5 µM | 30.4 µM | 72.5 µM | 28.3 µM | 63.6 µM | 12.6 µM | 26.3 µM | 87.3 µM | 31.9 µM | > 100 µM | 20.8 µM | 44.7 µM | 36.5 µM |  |
| COc1ccc2c(c1)CCCN1Cc3cc(OC)c(OC)cc3CC21 (stereo not drawn) |  | > 100 µM | > 100 µM | > 100 µM |  | > 100 µM | > 100 µM | > 100 µM | > 100 µM | > 100 µM | > 100 µM | > 100 µM | > 100 µM | > 100 µM | > 100 µM | > 100 µM | > 100 µM |
| COc1ccc(C2CC(=O)CC(c3ccc(OC)cc3)C23C(=O)NC(=S)NC3=O)cc1 (stereo not drawn) | > 100 µM | > 100 µM | > 100 µM | > 100 µM |  | > 100 µM | > 100 µM | > 100 µM | > 100 µM | > 100 µM | > 100 µM |  | > 100 µM | > 100 µM | > 100 µM | > 100 µM | > 100 µM |
| Cn1c(=O)c2c(nc(N)n2C2OC(CO)C(O)C2O)n(C)c1=O (stereo not drawn) |  | > 100 µM | > 100 µM | > 100 µM | > 100 µM | > 100 µM | > 100 µM | > 100 µM | > 100 µM | > 100 µM | > 100 µM | > 100 µM | > 100 µM | > 100 µM | > 100 µM | > 100 µM | > 100 µM |
| Cc1cc(S(=O)(=O)NC2=NC(c3ccccc3)c3ccccc3N2)c(S)cc1Cl (stereo not drawn) |  | > 100 µM | > 100 µM | > 100 µM | > 100 µM | > 100 µM | 80.9 µM | > 100 µM | > 100 µM | > 100 µM | > 100 µM | > 100 µM | > 100 µM | > 100 µM | > 100 µM | > 100 µM | > 100 µM |
| CN1C(=O)[C@@H]2N(CSC2(C)C)C1=S | > 100 µM | > 100 µM |  | > 100 µM | > 100 µM | > 100 µM | > 100 µM | > 100 µM | > 100 µM | > 100 µM | > 100 µM | > 100 µM | > 100 µM |  | > 100 µM | > 100 µM | > 100 µM |
| Cc1ccc(C(CC(=O)C(C)(C)CN2CCCCC2)SCCS(=O)(=O)O)cc1 (stereo not drawn) | 40.1 µM | > 100 µM |  | 59.9 µM | 48.1 µM | 48.7 µM | > 100 µM | 72.8 µM | > 100 µM | 78.8 µM | 59.2 µM | > 100 µM | > 100 µM | 45.9 µM | 49.5 µM | 83.8 µM | 83.3 µM |
| Cc1ccsc1C(=O)C(CC(=O)c1cccs1)c1ccsc1 (stereo not drawn) |  | > 100 µM |  | > 100 µM |  | > 100 µM | > 100 µM | > 100 µM | > 100 µM | > 100 µM | > 100 µM | > 100 µM | > 100 µM | > 100 µM | > 100 µM | > 100 µM | > 100 µM |
| COc1c(C)c(C/C=C(\C)CCCCO)c(OC)c(OC)c1OC | > 100 µM | > 100 µM | 61.2 µM | > 100 µM | 35.4 µM | > 100 µM | > 100 µM | > 100 µM | > 100 µM | > 100 µM | > 100 µM | 69.6 µM | 41.5 µM | > 100 µM | > 100 µM | > 100 µM |  |
| COc1ccccc1N1C(=O)CS(=O)(=O)C1c1cccc(Oc2ccccc2)c1 (stereo not drawn) | 27.1 µM | 31.8 µM | 36.1 µM | 34.9 µM |  | 38.8 µM | 27.2 µM | 44.1 µM | 16.5 µM | 49.2 µM | 27.3 µM | 40.5 µM | 61.7 µM | > 100 µM | 41.2 µM | 20.4 µM |  |
| Nc1nc(Cl)cc(NCC2(CO)CCC(O)C2)n1 (stereo not drawn) | > 100 µM | > 100 µM | > 100 µM | > 100 µM | > 100 µM | > 100 µM | > 100 µM | > 100 µM | > 100 µM | > 100 µM | > 100 µM | > 100 µM | > 100 µM | > 100 µM | > 100 µM | > 100 µM |  |
